Reference: patent publication US10030007B2, “Quinazolin-THF-amines as PDE1 inhibitors” (H. Lundbeck A/S, priority 2013, dated 2018)

Key:
Format in all cases: biochemical
Settings in all cases: 15 nM tritium labelled cAMP, 1 h at room temperature, SPA beads
PDE1B = PDE1B (Homo sapiens, UniProt Q01064); test: PDE1 inhibition assay (SPA), PDE1B
Protocol: (§1) PDE1A, PDE1B and PDE1C assays were performed as follows: the assays was performed in 60 μL samples containing a fixed amount of the PDE1 enzyml (sufficient to convert 20-25% of the cyclic nucleotide substrate), a buffer (50 mM HEPES pH 7.6; 10 mM MgCl2; 0.02% Tween20), 0.1 mg/ml BSA, 15 nM tritium labelled cAMP and varying amounts of inhibitors. Reactions were initiated by addition of the cyclic nucleotide substrate, and reactions were allowed to proceed for 1 h at room temperature before being terminated through mixing with 20 μL (0.2 mg) yttrium silicate SPA beads (PerkinElmer). The beads were allowed to settle for 1 h in the dark before the plates were counted in a Wallac 1450 Microbeta counter. The measured signals were converted to activity relative to an uninhibited control (100%) and IC50 values were calculated using XlFit (model 205, IDBS).

PDE1C = PDE1C (Homo sapiens, UniProt Q14123); test: PDE1 inhibition assay (SPA), PDE1C
PDE1C, sequence (Q14123 whole entry): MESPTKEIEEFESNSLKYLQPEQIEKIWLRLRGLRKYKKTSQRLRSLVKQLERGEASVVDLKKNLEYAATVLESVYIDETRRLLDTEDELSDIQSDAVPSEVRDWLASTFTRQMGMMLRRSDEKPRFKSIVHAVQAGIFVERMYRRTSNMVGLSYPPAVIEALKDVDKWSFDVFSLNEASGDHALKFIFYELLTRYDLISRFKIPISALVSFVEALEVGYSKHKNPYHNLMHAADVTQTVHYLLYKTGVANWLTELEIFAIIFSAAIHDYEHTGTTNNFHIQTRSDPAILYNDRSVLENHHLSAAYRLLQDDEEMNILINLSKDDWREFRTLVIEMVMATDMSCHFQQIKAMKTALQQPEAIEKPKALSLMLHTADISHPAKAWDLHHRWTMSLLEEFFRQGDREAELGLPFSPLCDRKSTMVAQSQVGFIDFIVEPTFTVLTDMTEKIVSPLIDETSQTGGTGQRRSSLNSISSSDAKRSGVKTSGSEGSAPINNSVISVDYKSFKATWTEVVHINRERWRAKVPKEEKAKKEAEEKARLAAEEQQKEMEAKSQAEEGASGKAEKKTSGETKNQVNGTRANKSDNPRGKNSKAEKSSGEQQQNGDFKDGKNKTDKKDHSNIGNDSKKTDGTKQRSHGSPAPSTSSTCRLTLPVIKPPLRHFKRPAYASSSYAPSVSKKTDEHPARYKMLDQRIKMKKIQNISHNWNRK
Protocol: as §1

PDE1A = PDE1A (Homo sapiens, UniProt P54750); test: PDE1 inhibition assay (SPA), PDE1A
PDE1A, sequence (P54750 whole entry): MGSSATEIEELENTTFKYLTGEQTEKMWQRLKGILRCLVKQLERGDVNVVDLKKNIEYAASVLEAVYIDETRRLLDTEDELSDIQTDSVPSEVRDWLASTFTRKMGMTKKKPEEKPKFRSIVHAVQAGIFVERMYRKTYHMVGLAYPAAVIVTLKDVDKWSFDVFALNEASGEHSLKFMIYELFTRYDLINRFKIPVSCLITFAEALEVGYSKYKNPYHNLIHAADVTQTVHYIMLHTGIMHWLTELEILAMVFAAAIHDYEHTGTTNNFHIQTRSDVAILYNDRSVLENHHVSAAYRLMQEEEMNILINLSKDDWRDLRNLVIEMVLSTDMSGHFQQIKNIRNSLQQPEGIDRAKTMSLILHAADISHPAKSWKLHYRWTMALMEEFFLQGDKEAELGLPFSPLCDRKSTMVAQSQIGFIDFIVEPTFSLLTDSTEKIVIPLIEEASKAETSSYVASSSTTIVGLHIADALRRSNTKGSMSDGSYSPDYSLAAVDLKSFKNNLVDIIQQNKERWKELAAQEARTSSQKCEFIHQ
Protocol: as §1

PDE1B, sequence (Q01064 whole entry): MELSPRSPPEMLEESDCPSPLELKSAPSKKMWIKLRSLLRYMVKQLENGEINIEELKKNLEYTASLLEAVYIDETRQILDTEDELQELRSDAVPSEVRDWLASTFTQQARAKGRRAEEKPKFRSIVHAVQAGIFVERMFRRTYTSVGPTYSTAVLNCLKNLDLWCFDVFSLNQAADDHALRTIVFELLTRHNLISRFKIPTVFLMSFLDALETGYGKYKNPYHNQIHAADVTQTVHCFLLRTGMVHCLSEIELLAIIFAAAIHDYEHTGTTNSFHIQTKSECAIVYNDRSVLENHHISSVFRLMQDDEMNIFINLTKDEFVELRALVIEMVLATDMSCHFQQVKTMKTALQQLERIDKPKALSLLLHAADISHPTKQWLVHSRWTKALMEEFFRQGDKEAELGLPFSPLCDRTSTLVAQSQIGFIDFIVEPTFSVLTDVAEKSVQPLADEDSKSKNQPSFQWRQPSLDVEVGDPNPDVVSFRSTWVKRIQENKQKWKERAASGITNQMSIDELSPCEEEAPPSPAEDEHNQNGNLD

IC50 (PDE1B) [µM] | IC50 (PDE1C) [µM] | IC50 (PDE1A) [µM] | Structure (SMILES)
0.26 | 1.3 | 2.4 | COc1ccc2c(NC3CCOC3C3CC3)ncnc2c1OC (stereo not drawn) [Compound 25, N-(2-Cyclopropyltetrahydrofuran-3-yl)-7,8-dimethoxyquinazolin-4-amine]
0.26 | 1.3 | 2.4 | COc1ccc2c(N[C@@H]3CCO[C@H]3C3CC3)ncnc2c1OC (relative stereo) [Compound 2, trans-N-(-2-cyclopropyltetrahydrofuran-3-yl)-7,8-dimethoxyquinazolin-4-amine]
